Test results published in patent US20220193209A1, “COMPOSITIONS AND METHODS FOR REACTIVATING LATENT IMMUNODEFICIENCY VIRUS AND/OR TREATING IMMUNODEFICIENCY VIRUS INFECTION” (The J. David Gladstone institutes, a testamentary trust …, priority 2019, published 2022).

Tests used:
CD4+ T cells = assay type: cell-based, human
Protocol: CD69 and CD25 expression was measured by flow cytometry gating on CD3^+CD4^+ T cells using FITC-labeled antibodies for CD3 (11-0048-42, eBioscience), APC-conjugated CD25 antibodies (17-0259-42, eBioscience), PerCP-labeled antibodies for CD4 (300528, Biolegend), and CD69-V450 (560740, BD Horizon). Staining was performed for 30 min on ice in FACS buffer (PBS, 2% FBS), and samples were analyzed on a BD Biosciences LSRII flow cytometer. Shown are the percentages of positive cells relative to total CD3^+ CD4^+ T cells or median fluorescence intensity (MFI).
FIG. 6, Panel A, the cell surface CD69 and CD25 T cell activation markers were measured by FACS in CD4^+ T cells upon AS1842856 treatment for 24, 48 and 72 h. 10 μg/mLαCD3 and 1 μg/mL αCD28 was used as control. Data is shown as percentage of positive cells and as mean±SD of two biological replicates. FIG. 6, Panel B, depicts the same as in FIG. 6, Panel A, but measuring FOXO1 target genes (IL7R, KLRG1, CD62L) after 48 h of AS1842856 treatment (n=3). […]. Cells were allowed to rest for 6 days before 72 h reactivation was induced with PHA/IL-2 and 10 μg/mL αCD3 and 1 μg/mLαCD28. Data are mean±SEM of at least 3 individual donors. Data represent average SD of 9-13 independent experiments. […] Cell viability was assessed by Trypan Blue exclusion.

[1] = tested on: HIV-1 latency establishment (HIVGKO reporter virus) in K562 cells; experiment: HIVGKO dual-color reporter latency establishment in K562 cells (FACS); assay type: cell-based
Text: While the effect of FOXO1 inhibitor treatment on productive infection has been tested (Trinite, B. et al. PLoS One 9, (2014)), its effect on latent HIV previously remained unknown. To test the potential of FOXO1 inhibition to affect HIV-1 latency, the new second-generation dual-color reporter virus HIVGKO (LTR-HIV-Δ-env-nefATG-csGFP-EF1α-mKO2) and the FOXO1 inhibitor AS1842856 were employed (FIG. 1, Panel A). In this system, latently-infected K562 cells express the mKO2 fluorophore, while cells containing a productive and active virus express both mKO2 and GFP fluorophores, the latter controlled by the HIV-1 LTR. […] Concomitantly, the proportion of actively infected cells increased. […] Thus, FOXO1 inhibition prevented HIV-1 latency establishment and increased the ratio between actively and latently infected cells.
Briefly, K562 cells were treated with increasing concentrations of the FOXO1 inhibitor AS1842856 just after HIVGKO infection. After 3-4 days, the percentage of latent cells and productive cells were quantified by FACS. In left panel, amount of productive or latent cells relative to the total infection rate (bars) and cell viability (dots). In the right panel, ratios of productive versus latent populations upon increasing concentrations of AS1842856 treatments. Data are represented as mean f SD of triplicate values, representative of three independent experiments. […]

For `CCn1cc(C(=O)O)c(=O)c2c(N)c(F)c(NC3CCCCC3)cc21` [AS1842856, 5-amino-7-(cyclohexylamino)-1-ethyl-6-fluoro-4-oxo-1,4-dihydro-quinoline-3-carboxylic acid], the “generalized T cell activation (CD69 and CD25 expression)” value (CD4+ T cells) was “not observed”, the IC50 ([1]; Human immunodeficiency virus 1, K562, read-out: IC50 observed in the cell culture system) was 60 nM and the “proportion of latently infected cells” value ([1]; K562, increasing concentrations) was “decreased”.
